The results in this text go back to US20130225623A1, “Methods of Treating Psychiatric or Neurological Disorders with MGLUR Antagonists” (MOUNT SINAI SCHOOL OF MEDICINE, priority 2010, published 2013).

Where “and” joins values, the source holds several entries; their conditions need not be identical. Equal values may be shown once.

Common to all, as to assay type: cell-based, mouse
The subject of experiment [1] is field EPSPs in hippocampal slices (area CA1). Nature of the experiment: Protein synthesis-dependent LTP induced by high frequency stimulation (HFS), hippocampal slice electrophysiology.
Experiment [2] has as its system field EPSPs at Schaffer collateral-CA1 synapses in acute hippocampal slices. Nature of the experiment: Paired-pulse low frequency stimulation (PP-LFS)-induced mGluR-LTD, hippocampal slice electrophysiology. As to conditions: for effect on PP-LFS-induced LTD: cycloheximide 60 μM; for field EPSP slope: in the presence of cycloheximide (60 μM), at 60 min after PP-LFS. Here is the method: (§1) Hippocampal slices (350 μm) were prepared from 4-6 week old heterozygous mice and their wild-type littermate controls. Slices were perfused with Ringer's solution containing (in mM): NaCl, 125.0; KCl, 2.5; MgSO4, 1.3; NaH2PO4, 1.0; NaHCO3, 26.2; CaCl2, 2.5; glucose, 11.0. The Ringer's solution was bubbled with 95% O2/5% CO2, at 32° C., during extracellular recordings (electrode solution: 3 M NaCl). Slices were maintained for 1 hr prior to establishment of a baseline of field excitatory postsynaptic potentials (fEPSPs) recorded from stratum radiatum in area CA1, evoked by stimulation of the Schaffer collateral-commissural afferents (100 μs pulses every 30 s) with bipolar tungsten electrodes placed into area CA3 (Bozdagi et al., 2000). Test stimulus intensity was adjusted to obtain fEPSPs with amplitudes that were one-half of the maximal response. The EPSP initial slope (mV/ms) was determined from the average waveform of four consecutive responses. Cycloheximide (60 μM, Sigma), dihydroxyphenylglycine (DHPG, 50 μM, Sigma), 2-methyl-6-phenylethynyl-pyridine (MPEP, 10 μM, Tocris), LY367385 (100 μM, Tocris), or rapamycin (20 nM, Enzo Life Sciences) were bath-applied for various durations as described in the Examples, below.
(§2) All experiments were performed in the presence of 100 μM 2-amino-5-phosphopentanoic acid (AP5). Paired-pulse responses were measured with interstimulus interval (ISI) of 50 ms, and are expressed as the ratio of the average responses to the second stimulation pulse (FP2) to the first stimulation pulse (FP1). LTP was induced by either a high-frequency stimulus (four trains of 100 Hz, 1 s stimulation separated by 5 min), a threshold levels of theta-burst stimulation (TBS) (5 bursts of four pulses at 100 Hz separated by 200 ms, (Lauterborn et al., 2007), or a single 100 Hz stimulation. To induce an mGluR-dependent LTD, Schaffer collaterals were stimulated by a paired-pulse low-frequency-stimulation (PP-LFS, 1 Hz for 20 min; 50 ms interstimulus interval (Huber et al., […]). DHPG-induced LTD was also used as described in the Examples, below
To examine the role of CYFIP1 in mGluR-LTD, field EPSPs were recorded at Schaffer collateral-CA1 synapses in acute hippocampal slices prepared from wild-type and Cyfip1 heterozygous mice.
One of the most striking abnormalities in experimental synaptic plasticity observed in the absence of FMRP is that mGluR-LTD is independent of protein synthesis in these animals. As the Cyfip1 heterozygotes have enhanced LTD, similar to what is observed in the absence of FMRP, mGluR-LTD in the presence of the protein synthesis inhibitor cycloheximide was examined.

Experiment [3] deals with field EPSPs in hippocampal slices (area CA1); group I mGluRs. Nature of the experiment: DHPG-induced long-term depression (mGluR-LTD), hippocampal slice electrophysiology. As to conditions: for effect of mGluR blockade on DHPG-induced LTD: Cyfip1 heterozygotes, slices incubated with antagonist and DHPG (MPEP 10 μM; LY367385 100 μM); for depression in synaptic transmission (field EPSP slope): at 30 min of application. On the procedure: as §1, §2
The mammalian target of rapamycin (mTOR) is an important regulator of translation in long-lasting forms of synaptic plasticity and it has been shown that DHPG-induced mGluR-LTD in hippocampal area CA1 is dependent on mTOR (see Richter and Klann, 2009). To determine whether mTOR is required for mGluR-LTD in Cyfip1 heterozygous mice, hippocampal slices were treated with DHPG in the presence of the mTOR inhibitor rapamycin.
Because mGluR5 activation is essential for mGluR-LTD induction, the effect of mGluR5 blockade on DHPG-induced LTD was examined. […] The effect of mGluR1 blockade on DHPG-induced LTD was also examined. […] The slices were next treated with both mGluR1 (LY367385) and mGluR5 (MPEP) antagonists.

On to `C[C@@H]1C[C@@H]([C@H](O)CC2CC(=O)NC(=O)C2)C(=O)[C@@H](C)C1` [cycloheximide], for which the “field EPSP slope” value in experiment [1] was 99±8 % of baseline and 100.8±8.2 % of baseline; in experiment [2] (Cyfip1 heterozygous slices), 68.49±8.9 % of baseline; in experiment [2] (wild-type slices), 98.05±2.5 % of baseline. Moreover, the “inhibition of protein synthesis-dependent LTP, comparison between genotypes” value in experiment [1] (wild-type vs Cyfip1 heterozygous mice, cycloheximide 60 μM, rapamycin 20 nM) was “did not differ between genotypes”. Further, the “effect on PP-LFS-induced LTD” value in experiment [2] (Cyfip1 heterozygous animals) is “not affected”; in experiment [2] (wild-type littermate controls), “inhibited LTD”. For the same molecule, in experiment [3] (wild-type mice, 60 μM cycloheximide, DHPG 50 μM), the “effect on DHPG-induced LTD” value is on record as “reduced LTD”.
On to `Cc1cccc(C#Cc2ccccc2)n1` [MPEP, 2-methyl-6-(phenylethynyl)-pyridine], for which the “effect of mGluR blockade on DHPG-induced LTD” value in experiment [3] is listed as “did not cause any change”.
Same read-out and setting: then `Cc1cc(C(=O)O)ccc1[C@H](N)C(=O)O` [LY367385], with “did not cause any change”.
For `NC(C(=O)O)c1cc(O)cc(O)c1` (racemic) [DHPG, (RS)-3,5-dihydroxyphenylglycine], the “depression in synaptic transmission (field EPSP slope)” value in experiment [3] (Cyfip1 heterozygous mice, DHPG 50 μM) is reported as 70.5±6 % of baseline; in experiment [3] (wild-type mice, DHPG 50 μM), 81.2±3 % of baseline.
